Source: patent US11174250B2, “Substituted carboxamides as inhibitors of WDR5 protein-protein binding” (PROPELLON THERAPEUTICS INC., priority 2016, dated 2021)
Read-outs that look alike come from different tables or passages of the source.

Experiments:
[1] = biological target: WDR5 protein (Homo sapiens (Human), UniProt P61964); assay: Surface Plasmon Resonance (SPR) assay; format: binding; details: for residence time: τ=1/koff, read-out: Residence Time (t, min)
Method: Exemplary compounds of the application were dissolved in 100% DMSO at 10 mM, assayed fresh, and then stored at −20° C. for repeat studies and other experiments. Full length WDR5 with an N-terminal His tag and C-terminal AviTag (Avidity Inc.) was expressed in E. coli with coexpression of BirA to biotin label the protein in vivo. Purification was via Ni-NTA. The purified WDR5 protein has a molecular weight of 41976 Da.
SPR studies were performed using a Biacore™ T200 instrument (GE Health Sciences Inc.). Biotinylated WDR5 protein (approximately 3000RU) was stably captured to streptavidin coupled SA chips according to the manufacture's protocol (GE Health Sciences Inc.). The running buffer used was HBS-EP (20 mM Hepes pH 7.4, 150 mM NaCl, 3 mM EDTA, 0.05% P-20) plus 5% DMSO with a flow rate of 40p1/min. For SPR analysis, 5 different concentrations of each exemplary compound of the application were sprayed into 96 or 384 well plates using an HP D300 digital dispenser. […] Curve fitting and KD calculations were performed with the Biacore T200 Evaluation software (GE Health Sciences Inc).

[2] = biological target: MLL1-WRAD2 complex (Homo sapiens (Human), UniProt P61964); assay: MLL1-WRAD2 enzyme assay (in vitro methyl transferase assay); format: biochemical
Method: Reaction was initiated with 1 μM 3H-SAM and incubated for 1 hour at 30° C. Reaction mixture was transferred to P81 filter-paper and washed with PBS before detection.

[3] = SPR, Table 1, read-out: WDR5 binding affinity (KD)
[4] = SPR, Table 2, read-out: WDR5 binding affinity SPR (KD)
[5] = MLL1-WRAD2 assay, read-out: In vitro MLL1 activity (IC50)
[6] = Table 4, effect of Fluoro-substitution
[7] = Table 4, effect of Fluoro-substitution, read-out: KD (SPR)
[8] = Table 4, effect of Fluoro-substitution, read-out: IC50 (MLL1)

Structure (SMILES)	Kd [1, 3] [nM]	Kd [1, 4] [nM]	residence time ([1]; SPR) [min]	IC50 [2, 5] [nM]	τ [1, 6] [min]	Kd [1, 7] [nM]	IC50 [2, 8] [nM]
CC(C)COc1ccc(F)c(-c2ccc(N3CCN(C)CC3)c(NC(=O)c3c[nH]c(=O)cc3C(F)(F)F)c2)c1 [Example 6, N-(2′-fluoro-5′-isobutoxy-4-(4-methylpiperazin-1-yl)-[1,1′-biphenyl]-3-yl)-6-oxo-4-(trifluoromethyl)-1,6-dihydropyridine-3-carboxamide]	76	76	0.19	2510	–	–	–
CN1CCN(c2ccc(-c3ccc(CNC4CCCC4)cc3F)cc2NC(=O)c2c[nH]c(=O)cc2C(F)(F)F)CC1 [Example 33, N-(4′-((cyclopentylamino)methyl)-2′-fluoro-4-(4-methylpiperazin-1-yl)-[1,1′-biphenyl]-3-yl)-6-oxo-4-(trifluoromethyl)-1,6-dihydropyridine-3-carboxamide]	23	23	1.37	8450	–	–	–
CN1CCN(c2ccc(-c3cc(CN4CCOCC4)ccc3F)cc2NC(=O)c2cn(C)c(=O)cc2C(F)(F)F)CC1 [Example 13, N-(2′-fluoro-4-(4-methylpiperazin-1-yl)-5′-(morpholinomethyl)-[1,1′-biphenyl]-3-yl)-1-methyl-6-oxo-4-(trifluoromethyl)-1,6-dihydropyridine-3-carboxamide]	15	15	0.3	8980	–	–	–
Cc1cc(C(=O)Nc2cc(-c3cc(CN4CCOCC4)ccc3F)ccc2N2CCN(C)CC2)cc(C(F)(F)F)c1F [Example 41, 4-fluoro-N-(2′-fluoro-4-(4-methylpiperazin-1-yl)-5′-(morpholinomethyl)-[1,1′-biphenyl]-3-yl)-3-methyl-5-(trifluoromethyl)benzamide]	55	55	0.77	> 30000	–	–	–
CN1CCN(c2ccc(-c3cc(CNC(C)(C)C)ccc3F)cc2NC(=O)c2c[nH]c(=O)cc2C(F)(F)F)CC1 [Example 35, N-(5′-((tert-butylamino)methyl)-2′-fluoro-4-(4-methylpiperazin-1-yl)-[1,1′-biphenyl]-3-yl)-6-oxo-4-(trifluoromethyl)-1,6-dihydropyridine-3-carboxamide]	9	9	4.59	2390	–	–	–
CN1CCN(c2ccc(-c3cc(CN4CCOCC4)ccc3F)cc2NC(=O)c2cc(O)cc(F)c2F)CC1 [Example 48, 2,3-difluoro-N-(2′-fluoro-4-(4-methylpiperazin-1-yl)-5′-(morpholinomethyl)-[1,1′-biphenyl]-3-yl)-5-hydroxybenzamide]	93	93	0.61	21300	–	–	–
C[C@H]1CN(c2ccc(-c3ncccc3F)cc2NC(=O)c2c[nH]c(=O)cc2C(F)(F)F)CCN1C [Example 96, (S)—N-(2-(3,4-dimethylpiperazin-1-yl)-5-(3-fluoropyridin-2-yl)phenyl)-6-oxo-4-(trifluoromethyl)-1,6-dihydropyridine-3-carboxamide]	2.6	3	–	2530	–	–	–
CN(C)C1CCN(c2ccc(-c3cc(CN4CCOCC4)ccc3F)cc2NC(=O)c2c[nH]c(=O)cc2C(F)(F)F)C1 (stereo not shown) [Example 87, N-(4-(3-(dimethylamino)pyrrolidin-1-yl)-2′-fluoro-5′-(morpholinomethyl)-[1,1′-biphenyl]-3-yl)-6-oxo-4-(trifluoromethyl)-1,6-dihydropyridine-3-carboxamide]	–	–	–	3890	–	–	–
Cc1cc(C(=O)Nc2cc(-c3cc(CN4CCOCC4)ccc3F)ccc2N2CCN(C)CC2)cc(C)c1F [Example 11, 4-fluoro-N-(2′-fluoro-4-(4-methylpiperazin-1-yl)-5′-(morpholinomethyl)-[1,1′-biphenyl]-3-yl)-3,5-dimethylbenzamide]	6	6	1.04	4430	–	–	–
Cc1cccc(C(=O)Nc2cc(-c3cc(CN4CCOCC4)ccc3F)ccc2N2CCN(C)CC2)c1 [Example 24, N-(2′-fluoro-4-(4-methylpiperazin-1-yl)-5′-(morpholinomethyl)-[1,1′-biphenyl]-3-yl)-3-methylbenzamide]	5030	5030	–	–	–	–	–
COc1cc(C(F)(F)F)c(C(=O)Nc2cc(-c3cc(CN4CCC(F)CC4)ccc3F)ccc2N2CCN(C)CC2)cn1 [Example 55, N-(2′-fluoro-5′-((4-fluoropiperidin-1-yl)methyl)-4-(4-methylpiperazin-1-yl)-[1,1′-biphenyl]-3-yl)-6-methoxy-4-(trifluoromethyl)nicotinamide]	> 200	> 200	–	–	–	–	–

Now from value to compound:

Kd [1, 3] [nM]	Kd [1, 4] [nM]	residence time ([1]; SPR) [min]	IC50 [2, 5] [nM]	τ [1, 6] [min]	Kd [1, 7] [nM]	IC50 [2, 8] [nM]	Structure (SMILES)
4.2	4	7.2	607	–	–	–	CN1CCN(c2ccc(-c3cc(C(=O)N(C)C4CCCCC4)ccc3F)cc2NC(=O)c2c[nH]c(=O)cc2C(F)(F)F)CC1 [Example 110, N-(5′-(cyclohexyl(methyl)carbamoyl)-2′-fluoro-4-(4-methylpiperazin-1-yl)-[1,1′-biphenyl]-3-yl)-6-oxo-4-(trifluoromethyl)-1,6-dihydropyridine-3-carboxamide]
14	14	2.2	3980	–	–	–	CN1CCN(c2ccc(-c3cc(CN4CCOCC4)ccc3F)c(F)c2NC(=O)c2c[nH]c(=O)cc2C(F)(F)F)CC1 [Example 99, N-(2,2′-difluoro-4-(4-methylpiperazin-1-yl)-5′-(morpholinomethyl)-[1,1′-biphenyl]-3-yl)-6-oxo-4-(trifluoromethyl)-1,6-dihydropyridine-3-carboxamide]
3.1	3	9.6	197	–	–	–	C[C@@H]1CN(c2ccc(-c3cc(C(=O)NC4CC4)ccc3F)cc2NC(=O)c2c[nH]c(=O)cc2C(F)(F)F)C[C@H](C)N1C [Example 93, N-(5′-(cyclopropylcarbamoyl)-2′-fluoro-4-((3S,5R)-3,4,5-trimethylpiperazin-1-yl)-[1,1′-biphenyl]-3-yl)-6-oxo-4-(trifluoromethyl)-1,6-dihydropyridine-3-carboxamide]
2.4	24	34	203	–	–	–	C[C@@H]1CN(c2ccc(-c3cc(C(=O)N(C)C4CCCCC4)ccc3F)cc2NC(=O)c2c[nH]c(=O)cc2C(F)(F)F)C[C@H](C)N1C [Example 111, N-(5′-(cyclohexyl(methyl)carbamoyl)-2′-fluoro-4-((3S,5R)-3,4,5-trimethylpiperazin-1-yl)-[1,1′-biphenyl]-3-yl)-6-oxo-4-(trifluoromethyl)-1,6-dihydropyridine-3-carboxamide]
13	13	4.3	11100	–	–	–	C[C@@H]1CN(c2ccc(-c3c(F)ccc(CNC4CCCCC4)c3F)cc2NC(=O)c2c[nH]c(=O)cc2C(F)(F)F)C[C@H](C)N1C [Example 114, N-(3′-((cyclohexylamino)methyl)-2′,6′-difluoro-4-((3S,5R)-3,4,5-trimethylpiperazin-1-yl)-[1,1′-biphenyl]-3-yl)-6-oxo-4-(trifluoromethyl)-1,6-dihydropyridine-3-carboxamide]
–	–	–	–	5.44	11	592	CN1CCN(c2ccc(-c3cc(CN4CCC(F)CC4)ccc3F)cc2NC(=O)c2c[nH]c(=O)cc2C(F)(F)F)CC1 [drawing 287]
–	–	–	–	–	–	939	CN1CCN(c2ccc(-c3cc(CN4CCOCC4)ccc3F)cc2NC(=O)c2c[nH]c(=O)cc2C(F)(F)F)CC1 [drawing 289]
1950	1950	–	–	–	–	–	CN1CCN(c2ccc(-c3cc(CN4CCOCC4)ccc3F)cc2NC(=O)c2ccc(=O)[nH]c2)CC1 [Example 105, N-(2′-fluoro-4-(4-methylpiperazin-1-yl)-5′-(morpholinomethyl)-[1,1′-biphenyl]-3-yl)-6-oxo-1,6-dihydropyridine-3-carboxamide]
55	55	1.5	–	–	–	–	C[C@@H]1CN(c2ccc(-c3c(F)cc(CNC4CCCCC4)cc3F)cc2NC(=O)c2c[nH]c(=O)cc2C(F)(F)F)C[C@H](C)N1C [Example 115, N-(4′-((cyclohexylamino)methyl)-2′,6′-difluoro-4-((3S,5R)-3,4,5-trimethylpiperazin-1-yl)-[1,1′-biphenyl]-3-yl)-6-oxo-4-(trifluoromethyl)-1,6-dihydropyridine-3-carboxamide]
> 200	> 200	–	–	–	–	–	O=C(Nc1cc(-c2cc(CN3CCOCC3)ccc2F)ccc1N1CCN(CC(F)(F)F)CC1)c1c[nH]c(=O)cc1C(F)(F)F [Example 97, N-(2′-fluoro-5′-(morpholinomethyl)-4-(4-(2,2,2-trifluoroethyl)piperazin-1-yl)-[,1′-biphenyl]-3-yl)-6-oxo-4-(trifluoromethyl)-1,6-dihydropyridine-3-carboxamide]
> 200	> 200	–	–	–	–	–	CN1CCN(c2ccc(-c3cc(CN4CCOCC4)ccc3F)cc2NC(=O)c2nc3ccccc3[nH]2)CC1 [Example 103, N-(2′-fluoro-4-(4-methylpiperazin-1-yl)-5′-(morpholinomethyl)-[1,1′-biphenyl]-3-yl)-1H-benzo[d]imidazole-2-carboxamide]
–	–	–	–	–	34.5	–	CN1CCN(c2ccc(-c3cc(CN4CCOCC4)ccc3Cl)cc2NC(=O)c2c[nH]c(=O)cc2C(F)(F)F)CC1 [drawing 288, reference compound]
–	–	–	–	0.91	30	–	CN1CCN(c2ccc(-c3cccc(CN4CCC(F)CC4)c3)cc2NC(=O)c2c[nH]c(=O)cc2C(F)(F)F)CC1 [reference compound]
–	–	–	–	–	6	–	CN1CCN(c2ccc(-c3cc(C(=O)NC4CCCCC4)ccc3F)cc2NC(=O)c2c[nH]c(=O)cc2C(F)(F)F)CC1 [drawing 291]
